This passage reports TGI results from PubChem BioAssay (NCI).

What all share (experiment): NCI tumour cell line growth inhibition, 48 h
The subject of test [1] is ACHN renal.
For test [2], the system named is BT-549 breast.
Test [3] deals with CAKI-1 renal.
In test [4] the test system is CCRF-CEM leukemia.
Test [5] deals with COLO 205 colon.
Test [6] relates to DU-145 prostate.
The subject of test [7] is HCT-15 colon.
The subject of test [8] is HS 578T breast.
Test [9] relates to HT29 colon.
Test [10] concerns LOX IMVI melanoma.
The subject of test [11] is NCI/ADR-RES ovarian.
Test [12] deals with OVCAR-3 ovarian.
The test system of test [13] is OVCAR-8 ovarian.
For test [14], the system named is RPMI-8226 leukemia.
The test system of test [15] is SF-539 CNS.
The subject of test [16] is SK-MEL-2 melanoma.
The subject of test [17] is SK-MEL-28 melanoma.
For test [18], the system named is U251 CNS.

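The compound was tested at five concentrations on cells cultured in 96-well plates, with a 48-hour exposure period. TGI: total growth inhibition.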

In the case of `NC(=O)c1cccc([C@@H]2O[C@H](CO)[C@@H](O)[C@H]2O)c1`, the TGI in [1] is 71.3 µM; in test [2], 43.4 µM; in test [3], greater than 69.1 µM; in test [4], 15.4 µM; in test [5], 48.7 µM; in [6], greater than 50.6 µM. In addition, the TGI is 11.7 µM in test [7]; 74.5 µM in test [8]; 99 µM in test [9]; greater than 85.4 µM in test [10]; 16.3 µM in test [11]; 67.2 µM in test [12]. In addition, the TGI in test [13] is 9.55 µM; in [14], 29.8 µM; in test [15] it was 6.28 µM; in [16] it was greater than 100 µM; in [17], 29.6 µM; in test [18], 32.4 µM.

Turning to `CC(=O)ON(C(C)=O)c1ccc(-c2nc3ccccc3s2)cc1C`, the TGI in test [1], in [2], in [3], in [4], in [5] and in test [6] was greater than 100 µM throughout. The TGI in [7], in test [8], in test [9], in test [10], in [11] and in [12] was greater than 100 µM each time. Also, the TGI in test [13], in test [14], in [15], in test [16], in [17] and in test [18] was greater than 100 µM each time.

Turning to `O=C1c2ccccc2C(=O)c2oc(Br)cc21`, the TGI worked out at 3.22 µM in test [1]; 3.11 µM in [2]; 3.43 µM in test [3]; 6.66 µM in test [4]; 3.47 µM in [5]; 0.491 µM in test [6]. Moreover, the TGI was 1.91 µM in [7]; 0.732 µM in test [8]; 3.68 µM in [9]; greater than 100 µM in test [10]; 5.44 µM in test [11]; 5.67 µM in [12]. Besides, the TGI in test [13] amounted to 2.92 µM; in [14], 6.99 µM; in test [15], 1.84 µM; in [16], 1.73 µM; in [17], 0.934 µM; in test [18], 2.64 µM.

Regarding `COc1ccc(C(=O)Nc2ccc3oc(-c4ccccc4)nc3c2)cc1`, the TGI in test [1], in test [2], in test [3], in test [4], in [5] and in [6] was greater than 100 µM in each case. The TGI in [7], in test [8], in test [9], in test [10], in test [11] and in test [12] was greater than 100 µM throughout. For the same compound, the TGI in test [13] is 88.5 µM; in test [14] it was greater than 100 µM; in [15], greater than 100 µM; in test [16], greater than 100 µM; in test [17] it was greater than 100 µM; in test [18] it was greater than 100 µM.

Regarding `S=c1[nH]nc(NNc2ccccc2)n1Nc1ccccc1`, the TGI in [1] was greater than 100 µM; in test [2], greater than 100 µM; in [3], greater than 100 µM; in test [4] it was 42 µM; in test [5], greater than 37.6 µM; in [6], greater than 100 µM. In addition, the TGI in test [7] is greater than 100 µM; in test [8] it was greater than 100 µM; in test [9] it was greater than 100 µM; in [10], 32.5 µM; in [11], greater than 100 µM; in test [12], greater than 100 µM. Moreover, the TGI in test [13] was greater than 100 µM; in [14] it was greater than 100 µM; in test [15] it was greater than 73.6 µM; in test [16] it was greater than 100 µM; in test [17], greater than 100 µM; in test [18], greater than 83.9 µM.

On to `COc1ccc(CCNCCCC2c3ccccc3-c3ccccc32)cc1OC`, for which the TGI came to 29.6 µM in test [1]; 35.6 µM in [2]; 33.4 µM in test [3]; 49 µM in test [4]; 3.4 µM in test [5]; 28.9 µM in [6]. Further, the TGI stood at 29 µM in [7]; 39.8 µM in [8]; 16.1 µM in test [9]; 28.7 µM in [10]; 33.2 µM in [11]; 31.2 µM in [12]. The TGI was found to be 41.8 µM in test [13]; 22 µM in test [14]; 30.8 µM in test [15]; 17.9 µM in test [16]; 23.1 µM in test [17]; 26.2 µM in [18].

As to `c1ccc(CC2(c3cc4ccccc4[nH]3)OCCO2)nc1`, the TGI in [1], in test [2], in [3], in [4], in test [5] and in [6] was greater than 100 µM each time. Further, the TGI in test [7], in [8], in test [9], in test [10], in [11] and in test [12] was greater than 100 µM throughout. In addition, the TGI in test [13], in test [14], in test [15], in [16], in [17] and in test [18] was greater than 100 µM throughout.

Consider `CC1OC(OC2C(Oc3cc(O)c4c(c3)O[C@H](c3ccc(O)cc3)CC4=O)OC(CO)C(O)C2O)C(O)C(O)C1O` (stereo partly specified), for which the TGI in test [1], in [2], in test [3], in test [4], in test [5] and in [6] was greater than 100 µM each time. The TGI in [7], in [8], in test [9], in [10], in test [11] and in [12] was greater than 100 µM in each case. Further, the TGI in test [13], in [14], in test [15], in test [16], in test [17] and in [18] was greater than 100 µM in each case.

Regarding `S=C1N=C(Cl)/C(=C\c2ccccc2)N1`, the TGI was greater than 100 µM in [1]; greater than 100 µM in test [2]; greater than 100 µM in test [3]; greater than 31.6 µM in test [4]; greater than 100 µM in test [5]; greater than 100 µM in test [6]. Besides, the TGI in test [7], in test [8], in test [9], in test [10], in test [11] and in [12] was greater than 100 µM throughout. For the same compound, the TGI in [13], in test [14], in test [15], in [16], in test [17] and in [18] was greater than 100 µM each time.

For `Cc1nc2c(=O)n3c4c(cccc4c2o1)CCC3`, the TGI in [1], in test [2], in [3], in [4], in test [5] and in test [6] was greater than 100 µM in each case. For the same compound, the TGI in test [7], in test [8], in [9], in [10], in test [11] and in test [12] was greater than 100 µM in each case. Besides, the TGI in test [13], in [14], in [15], in test [16], in test [17] and in [18] was greater than 100 µM each time.

Turning to `CC#CC(O)(C(=O)OC1CC2CCC(C1)N2C)C1CCCC1` (stereo unspecified), the TGI in test [1], in test [2], in test [3], in test [4], in [5] and in test [6] was greater than 100 µM in each case. The TGI in [7], in [8], in [9], in test [10], in [11] and in test [12] was greater than 100 µM throughout. In addition, the TGI in test [13], in test [14], in test [15], in test [16], in [17] and in [18] was greater than 100 µM throughout.

For the compound `Cc1cc(-c2nc3cccc(F)c3s2)ccc1N`, the TGI was greater than 100 µM in test [1]; greater than 100 µM in [2]; greater than 100 µM in test [3]; 80.5 µM in test [4]; greater than 100 µM in test [5]; greater than 100 µM in test [6]. In addition, the TGI in [7] is greater than 100 µM; in test [8], greater than 90.8 µM; in test [9], greater than 100 µM; in test [10], greater than 100 µM; in [11], greater than 100 µM; in test [12], greater than 100 µM. For the same compound, the TGI in test [13], in [14], in test [15], in test [16], in [17] and in test [18] was greater than 100 µM throughout.
